ChEMBL document CHEMBL6153094, “Rationally designed highly amphipathic antimicrobial peptides demonstrating superior bacterial selectivity relative to the corresponding α-helix peptide” (Eur J Med Chem, 2025)
Activity calls are given as the source filed them. No cut-off for these calls is given here.

Legend:
Acinetobacter baumannii = assay: Antimicrobial activity against Acinetobacter baumannii ATCC 19606 assessed as inhibition of visible bacterial growth incubated for 18 hrs by broth microdilution method; format: functional
Bacillus subtilis = assay: Antimicrobial activity against Bacillus subtilis ATCC 23857 assessed as inhibition of visible bacterial growth incubated for 18 hrs by broth microdilution method; format: functional
[1] = tested on: Staphylococcus epidermidis; assay: Antimicrobial activity against Staphylococcus epidermidis ATCC 12228 assessed as inhibition of visible bacterial growth incubated for 18 hrs by broth-dilution method; format: functional
Staphylococcus aureus [2] = assay: Antimicrobial activity against Staphylococcus aureus ATCC 25923 assessed as inhibition of visible bacterial growth incubated for 18 hrs by broth-dilution method; format: functional
Staphylococcus aureus [3] = assay: Antimicrobial activity against methicillin-drug resistant Staphylococcus aureus clinical isolate 2 assessed as concentration required to eliminate 90% bacteria incubated for 18 hrs by broth-microdilution method; format: functional
Staphylococcus aureus [4] = assay: Antimicrobial activity against methicillin-drug resistant Staphylococcus aureus clinical isolate 54 assessed as concentration required to eliminate 90% bacteria incubated for 18 hrs by broth-microdilution method; format: functional
Escherichia coli [5] = assay: Antimicrobial activity against multi-drug resistant Escherichia coli clinical isolate 780 assessed as concentration required to eliminate 90% bacteria incubated for 18 hrs by broth-microdilution method; format: functional
Escherichia coli [6] = assay: Antimicrobial activity against multi-drug resistant Escherichia coli clinical isolate 804 assessed as concentration required to eliminate 90% bacteria incubated for 18 hrs by broth-microdilution method; format: functional
Staphylococcus aureus [7] = assay: Antibacterial activity against Staphylococcus aureus ATCC 25923 assessed as inhibition of bacterial growth at 2 times of MIC incubated for 18 hrs in presence of 2000 microg/ml of chymotrypsin by absorbance based assay; format: functional, organism-based
Pseudomonas aeruginosa [8] = assay: Antibacterial activity against Pseudomonas aeruginosa ATCC 27853 incubated for 18 hrs in presence of ZnCl2 by Mueller-Hinton broth based assay; format: functional, organism-based
Staphylococcus aureus [9] = assay: Antibacterial activity against Staphylococcus aureus ATCC 25923 assessed as fold change in MIC incubated for 18 hrs in presence of KCl by Mueller-Hinton broth based assay; format: functional
Staphylococcus aureus [10] = assay: Antibacterial activity against Staphylococcus aureus ATCC 25923 incubated for 18 hrs in presence of MgCl2 by Mueller-Hinton broth based assay; format: functional, organism-based
Staphylococcus aureus [11] = assay: Antibacterial activity against Staphylococcus aureus ATCC 25923 incubated for 18 hrs in presence of ZnCl2 by Mueller-Hinton broth based assay; format: functional, organism-based
Staphylococcus aureus [12] = assay: Antibacterial activity against Staphylococcus aureus ATCC 25923 incubated for 18 hrs in presence of FeCl3 by Mueller-Hinton broth based assay; format: functional, organism-based
Pseudomonas aeruginosa [13] = assay: Antibacterial activity against Pseudomonas aeruginosa ATCC 27853 incubated for 18 hrs in presence of 10% serum by broth microdilution method; format: functional, organism-based
Pseudomonas aeruginosa [14] = assay: Antibiofilm activity in Pseudomonas aeruginosa ATCC 27853 assessed as inhibition of biofilm formation at 1 times of MIC incubated for 24 hrs by crystal violet staining based analysis relative to control; format: functional
Staphylococcus aureus [15] = assay: Antibiofilm activity in Staphylococcus aureus ATCC 25923 assessed as inhibition of biofilm formation at 2 times of MIC incubated for 24 hrs by crystal violet staining based analysis relative to control; format: functional
Staphylococcus aureus [16] = assay: Antimicrobial activity against gentamicin-resistant Staphylococcus aureus ATCC 25923 assessed as inhibition of visible bacterial growth incubated for 18 hrs by broth-dilution method; format: functional
Pseudomonas aeruginosa [17] = assay: Synergistic antimicrobial activity against gentamicin-resistant Pseudomonas aeruginosa ATCC 27853 assessed as fractional inhibitory concentration index incubated for 18 hrs in presence of gentamicin by checkerboard microdilution method; format: functional
Staphylococcus aureus [18] = assay: Bactericidal activity against Staphylococcus aureus ATCC 25923 assessed as bacterial killing measured upto 360 mins by time-kill kinetics assay; format: functional, organism-based
Pseudomonas aeruginosa [19] = assay: Bactericidal activity against Pseudomonas aeruginosa ATCC 27853 assessed as bacterial eradication at 2 times of MIC measured within 30 mins by time-kill kinetics assay; format: functional, organism-based
Staphylococcus aureus [20] = assay: Bactericidal activity against Staphylococcus aureus ATCC 25923 assessed as bacterial eradication at 4 times of MIC measured within 30 mins by time-kill kinetics assay; format: functional, organism-based
Cell membrane [21] = assay: Induction of inner membrane permeabilization in Escherichia coli ML-35 ATCC 43837 assessed as increase in […] measured for 135 mins by ONPG based analysis; format: subcellular
Pseudomonas aeruginosa [22] = assay: Induction of morphological changes in Pseudomonas aeruginosa ATCC 27853 assessed as cell adhesion at 2 times of MIC incubated for 30 to 120 mins by SEM analysis; format: functional, organism-based; conditions: time 30-120 min
Staphylococcus aureus [23] = assay: Induction of morphological changes in Staphylococcus aureus ATCC 25923 assessed as content leakage at 2 times of MIC incubated for 30 to 120 mins by SEM analysis; format: functional, organism-based; conditions: time 30-120 min
Cell membrane [24] = assay: Disruption of membrane integrity in Staphylococcus aureus ATCC 25923 at 2 times of MIC incubated for 30 to 120 mins by SEM analysis; format: subcellular; conditions: time 30-120 min
[25] = Toxicity in male Balb/c mouse assessed as mortality at 80 mg/kg, ip measured after 7 days relative to control; format: organism-based; conditions: in vivo, time 7 day
[26] = Toxicity in male Balb/c mouse assessed as animal death at 127 mg/kg, ip measured within 2 days; format: organism-based; conditions: in vivo, 48 h, time < 2 day
Klebsiella pneumoniae [27] = assay: Antibacterial activity against Klebsiella pneumoniae ATCC 700603 infected in male Balb/c mouse model of pneumonia assessed as decrease in bacterial load in lung at 2.5 to 10 mg/kg, ip administered at 4 and 12 hrs post-infected and measured after 24 hrs by agar plate method; format: functional, organism-based; conditions: dose 2.5-10 mg/kg, time 20.0 hrs
Klebsiella pneumoniae [28] = assay: Antibacterial activity against Klebsiella pneumoniae ATCC 700603 infected in male Balb/c mouse model of pneumonia assessed as decrease in decrease in TNF-alpha level in lung at 2.5 to 10 mg/kg, ip administered at 4 and 12 hrs post-infected and measured after 24 hrs by ELISA; format: functional, organism-based; conditions: dose 2.5-10 mg/kg, time 20.0 hrs
Klebsiella pneumoniae [29] = assay: Antibacterial activity against Klebsiella pneumoniae ATCC 700603 infected in male Balb/c mouse model of pneumonia assessed as decrease in decrease in IL-6 level in lung at 2.5 to 10 mg/kg, ip administered at 4 and 12 hrs post-infected and measured after 24 hrs by ELISA; format: functional, organism-based; conditions: dose 2.5-10 mg/kg, time 20.0 hrs
Klebsiella pneumoniae [30] = assay: Antibacterial activity against Klebsiella pneumoniae ATCC 700603 infected in male Balb/c mouse model of pneumonia assessed as decrease in inflammatory cell infiltration in […] at 2.5 mg/kg, ip administered at 4 and 12 hrs post-infected and measured after 24 hrs by H and E staining based analysis; format: functional, organism-based; conditions: time 20.0 hrs

For H-RRWFRRWRRWFR-NH2, the MIC (Acinetobacter baumannii) was 8 µM, the MIC (Bacillus subtilis) was 1 µM and the MIC [1] was 1 µM. The MIC (Staphylococcus aureus [2]) was 2 µM, the EC90 (Staphylococcus aureus [3]) was 2.86 µM and the EC90 (Staphylococcus aureus [4]) was 3.42 µM. The EC90 (Escherichia coli [5]) was 5.08 µM, the EC90 (Escherichia coli [6]) was 5.42 µM and the Activity (Staphylococcus aureus [7]) was “Not active; Entire Loss Of Activity Observed”. The Activity (Pseudomonas aeruginosa [8]) was “Active”, the “fold change (FC)” value (Staphylococcus aureus [9]) was 2 and the Activity (Staphylococcus aureus [10]) was “Active”. The Activity (Staphylococcus aureus [11]) was “Active”, the Activity (Staphylococcus aureus [12]) was “Active” and the Activity (Pseudomonas aeruginosa [13]) was “inactive”. The “inhibition (INH)” value (Pseudomonas aeruginosa [14]) was greater than 90%, the “inhibition (INH)” value (Staphylococcus aureus [15]) was roughly 75% and the MIC (Staphylococcus aureus [16]) was 4 µM. For the same substance, the “fractional inhibitory concentration index (FICI)” value (Pseudomonas aeruginosa [17]) was 0.5, the Activity (Staphylococcus aureus [18]) was “Dose-dependent-effect” and the Activity (Pseudomonas aeruginosa [19]) was “Active”. For the same substance, the Activity (Staphylococcus aureus [20]) was “Active”, the Activity (Cell membrane [21]) was “Active; Lower Concentration Of Compound Is Sufficient To Disrupt Inner Membrane” and the Activity (Pseudomonas aeruginosa [22]) was “Active”. The Activity (Staphylococcus aureus [23]) was “Active”, the Activity (Cell membrane [24]) was “Active” and the mortality at 168 h [25] was 25%. For the same substance, the Activity [26] was “Toxic”, the Activity (Klebsiella pneumoniae [27]) was “Active” and the Activity (Klebsiella pneumoniae [28]) was “Active”. The Activity (Klebsiella pneumoniae [29]) was “inactive” and the Activity (Klebsiella pneumoniae [30]) was “Active”.
